pIC50: −log10 of the molar value.
How the values were obtained:
[1] = tested on: Karpas 422 cells; assay: Karpas 422 cell viability, CTG (Cell Titre Glo) assay; assay type: cell-based, human; details: Homo sapiens; Inhibition of proliferation of Karpas 422 cells (EZH2 Y641N); viability measured Day 4, Day 7 or Day 11, time point of the tabulated values not stated
Experimental: Karpas 422 cell line is a human B cell non-Hodgkin's lymphoma cell line established from a patient having DLBCL. This EZH2 heterozygotic cell line expresses a mutant form of EZH2 enzyme (Y641N) that increases histone H3 methylation and this mutation has been implicated in the tumorgenesis of lymphomas, such as DLBCL.
Karpas 422 cells (PHE cat no., 06101702) were cultured in RPMI medium supplemented with 20% fetal bovine serum and 1% penicillin/1% streptomycin and plated at a density of 1000 cells/90 µl/well in 96 well white assay plates. A dose response curve for compounds of the present invention was determined by adding a 10µl aliquot of stock solutions of varying concentrations of compounds to the same medium in each well, over a concentration range of 10µM using 3-fold dilutions to a final concentration of 1.5nM. The plates were incubated at 37° C for predetermined time periods, Day 4, Day 7, or Day 11, and the viability of the cells was measured using a CTG assay kit (Cell Titre Glo; Promega cat.no G7573) on Day 4 and Day 7 in accordance with the manufacturer's instructions.
For the viability assay for the Day 11 plates, the plates were subjected to centrifugation at 1100 rpm for five minutes on Day 7 and the supernatant was removed by aspiration. The cells were resuspended in 90 µl aliquot of the appropriate growth medium lacking the compound followed by addition of 10 µl of a 10X stock of the same compound at the same concentration. The viability of the Day 11 cells was measured using the CTG assay kit described above in accordance with the manufacturer's instructions. The IC50 values for each compound at each predetermined time point were calculated using Graph pad PRISM software and the results are shown in Table 15. A = ≤250 nM; B = […] - ≤500 nM; and C = >500 nM.

[2] = target: purified human, His-tagged PRC2 complex (Homo sapiens, UniProt O75530+Q15910); assay: Hot Spot HMT assay: inhibition of PRC2 enzymatic activity (transfer of tritiated methyl from SAM to core histone, filter binding); assay type: biochemical; details: Inhibition of PRC2-mediated enzymatic activity; 10 nM PRC2 complex, 0.05 mg/ml core histone H3, 1 uM 3H-SAM, 1 hr at 30°C
Outline: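 Serial compound dilutions starting at 1.0 µM were pre-incubated 20 min at 30°C with 10 nM complex (His-EZH2, Flag-EED, His-SUZ12, His-AEBP2, His-RbAp48) and 0.05 mg/ml core H3. Reaction ran 1 hr at 30°C after adding 1 uM [3H]-SAM; scintillation counting followed filtration.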

purified human, His-tagged PRC2 complex, sequence (Q15910 whole entry): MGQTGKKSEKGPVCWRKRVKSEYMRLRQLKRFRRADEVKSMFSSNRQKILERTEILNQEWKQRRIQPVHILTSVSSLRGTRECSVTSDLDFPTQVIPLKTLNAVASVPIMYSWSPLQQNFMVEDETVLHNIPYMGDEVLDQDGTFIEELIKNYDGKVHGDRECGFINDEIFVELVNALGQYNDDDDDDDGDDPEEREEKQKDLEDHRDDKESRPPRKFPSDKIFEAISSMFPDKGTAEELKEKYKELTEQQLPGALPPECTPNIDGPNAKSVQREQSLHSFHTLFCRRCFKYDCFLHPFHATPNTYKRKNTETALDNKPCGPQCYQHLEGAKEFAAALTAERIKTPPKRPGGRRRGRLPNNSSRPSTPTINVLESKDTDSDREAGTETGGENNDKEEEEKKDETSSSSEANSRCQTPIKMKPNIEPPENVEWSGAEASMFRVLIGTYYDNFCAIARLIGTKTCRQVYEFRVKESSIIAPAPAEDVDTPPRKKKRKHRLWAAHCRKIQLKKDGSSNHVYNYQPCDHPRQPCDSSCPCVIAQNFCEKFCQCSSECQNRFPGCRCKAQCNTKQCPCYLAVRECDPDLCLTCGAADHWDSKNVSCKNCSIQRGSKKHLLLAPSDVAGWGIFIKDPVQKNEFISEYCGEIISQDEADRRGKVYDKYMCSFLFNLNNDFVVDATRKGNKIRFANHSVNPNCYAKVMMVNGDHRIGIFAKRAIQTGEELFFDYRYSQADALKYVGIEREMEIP
purified human, His-tagged PRC2 complex, sequence (O75530 whole entry): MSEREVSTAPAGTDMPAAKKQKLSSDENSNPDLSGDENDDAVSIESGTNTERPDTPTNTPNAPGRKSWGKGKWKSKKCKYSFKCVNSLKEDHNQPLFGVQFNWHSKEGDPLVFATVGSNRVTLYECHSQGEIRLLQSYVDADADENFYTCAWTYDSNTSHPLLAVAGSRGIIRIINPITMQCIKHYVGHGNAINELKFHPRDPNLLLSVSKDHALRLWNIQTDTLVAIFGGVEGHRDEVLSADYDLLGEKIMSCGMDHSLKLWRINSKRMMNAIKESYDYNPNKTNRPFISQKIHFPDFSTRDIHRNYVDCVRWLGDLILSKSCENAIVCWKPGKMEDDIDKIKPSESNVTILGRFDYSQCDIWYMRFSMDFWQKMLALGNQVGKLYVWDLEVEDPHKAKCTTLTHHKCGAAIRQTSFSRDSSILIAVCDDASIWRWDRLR
purified human, His-tagged PRC2 complex, sequence (Q15022 whole entry partner): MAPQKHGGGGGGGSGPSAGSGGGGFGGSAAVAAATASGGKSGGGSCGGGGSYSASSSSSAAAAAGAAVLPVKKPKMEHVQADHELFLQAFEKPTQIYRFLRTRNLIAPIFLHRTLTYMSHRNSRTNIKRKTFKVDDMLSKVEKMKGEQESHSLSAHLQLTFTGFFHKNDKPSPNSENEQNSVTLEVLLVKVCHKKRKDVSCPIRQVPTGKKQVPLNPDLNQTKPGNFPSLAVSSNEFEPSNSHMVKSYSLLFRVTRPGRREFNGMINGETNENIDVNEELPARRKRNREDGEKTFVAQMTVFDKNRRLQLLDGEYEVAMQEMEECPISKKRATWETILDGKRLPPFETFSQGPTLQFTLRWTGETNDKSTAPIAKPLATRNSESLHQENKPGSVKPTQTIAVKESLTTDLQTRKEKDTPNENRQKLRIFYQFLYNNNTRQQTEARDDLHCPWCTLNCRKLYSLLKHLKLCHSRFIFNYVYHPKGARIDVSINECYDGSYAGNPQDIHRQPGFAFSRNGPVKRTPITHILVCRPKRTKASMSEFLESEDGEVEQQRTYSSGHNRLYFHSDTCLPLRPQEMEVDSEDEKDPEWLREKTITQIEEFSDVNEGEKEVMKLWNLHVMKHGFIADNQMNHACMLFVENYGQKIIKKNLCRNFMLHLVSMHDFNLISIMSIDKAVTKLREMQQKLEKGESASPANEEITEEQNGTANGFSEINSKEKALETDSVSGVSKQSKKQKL
purified human, His-tagged PRC2 complex, sequence (Q6ZN18 whole entry partner): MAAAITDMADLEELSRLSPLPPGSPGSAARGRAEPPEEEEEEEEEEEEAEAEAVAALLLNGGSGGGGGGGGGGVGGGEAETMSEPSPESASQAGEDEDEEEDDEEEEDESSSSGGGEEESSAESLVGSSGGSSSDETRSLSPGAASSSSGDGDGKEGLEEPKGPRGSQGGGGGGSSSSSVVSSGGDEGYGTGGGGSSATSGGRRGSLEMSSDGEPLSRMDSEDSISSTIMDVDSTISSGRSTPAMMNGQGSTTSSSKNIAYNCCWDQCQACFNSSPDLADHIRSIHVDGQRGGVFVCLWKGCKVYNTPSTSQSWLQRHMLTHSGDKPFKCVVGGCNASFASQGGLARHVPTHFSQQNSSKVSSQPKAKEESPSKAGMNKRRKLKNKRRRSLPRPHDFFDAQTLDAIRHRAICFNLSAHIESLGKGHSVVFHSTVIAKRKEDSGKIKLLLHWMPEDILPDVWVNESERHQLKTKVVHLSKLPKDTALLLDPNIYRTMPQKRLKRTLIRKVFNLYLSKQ
purified human, His-tagged PRC2 complex, sequence (Q09028 whole entry partner): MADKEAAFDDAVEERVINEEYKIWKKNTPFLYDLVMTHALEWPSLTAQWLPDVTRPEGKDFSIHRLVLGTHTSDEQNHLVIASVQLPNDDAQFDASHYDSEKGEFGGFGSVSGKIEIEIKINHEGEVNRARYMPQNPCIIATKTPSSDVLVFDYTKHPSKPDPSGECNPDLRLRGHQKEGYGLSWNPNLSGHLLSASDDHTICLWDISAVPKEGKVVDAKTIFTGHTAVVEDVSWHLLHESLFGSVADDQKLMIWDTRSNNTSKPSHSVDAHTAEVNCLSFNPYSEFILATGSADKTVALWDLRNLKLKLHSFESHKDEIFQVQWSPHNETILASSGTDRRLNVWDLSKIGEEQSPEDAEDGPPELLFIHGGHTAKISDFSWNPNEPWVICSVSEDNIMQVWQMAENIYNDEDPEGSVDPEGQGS

| Structure (SMILES) | pIC50 [1] | pIC50 [2] |
| --- | --- | --- |
| N#Cc1cn2c(NCc3c(F)ccc4c3CCO4)ncc(-c3cnn(C4COC4)c3)c2n1 [Example 106, 5-(((5-fluoro-2,3-dihydrobenzofuran-4-yl)methyl)amino)-8-(1-(oxetan-3-yl)-1H-pyrazol-4-yl)imidazo[1,2-c]pyrimidine-2-carbonitrile] | < 6.30 | 6.30 to 7.00 |
| CC(C)Oc1ccc(-c2cnc(NCc3c(F)ccc4c3CCO4)n3cc(C#N)nc23)cn1 [Example 133, 5-(((5-fluoro-2,3-dihydrobenzofuran-4-yl)methyl)amino)-8-(6-isopropoxypyridin-3-yl)imidazo[1,2-c]pyrimidine-2-carbonitrile] | < 6.30 | > 7.00 |
| Cc1nc(C2CC2)ncc1-c1cnc(NCc2c(F)ccc3c2CCO3)n2cc(C(=O)O)nc12 [Example 7, 8-(2-cyclopropyl-4-methylpyrimidin-5-yl)-5-(((5-fluoro-2,3-dihydrobenzofuran-4-yl)methyl)amino)imidazo[1,2-c]pyrimidine-2-carboxylic acid] | < 6.30 | > 7.00 |
| COc1ncc(-c2cnc(NCc3c(F)ccc4c3CCO4)n3cc(C#N)nc23)cc1C#N [Example 130, 8-(5-cyano-6-methoxypyridin-3-yl)-5-(((5-fluoro-2,3-dihydrobenzofuran-4-yl)methyl)amino)imidazo[1,2-c]pyrimidine-2-carbonitrile] | < 6.30 | 6.30 to 7.00 |
| N#Cc1cn2c(NCc3c(F)ccc4c3CCO4)ncc(-c3cncc(C(F)(F)F)c3)c2n1 [Example 132, 5-(((5-fluoro-2,3-dihydrobenzofuran-4-yl)methyl)amino)-8-(5-(trifluoromethyl)pyridin-3-yl)imidazo[1,2-c]pyrimidine-2-carbonitrile] | 6.30 to 6.60 | < 6.30 |
| Cc1nc(OC(C)C)ncc1-c1cnc(NCc2c(F)ccc3c2CCO3)n2cc(C#N)nc12 [Example 89, 5-(((5-fluoro-2,3-dihydrobenzofuran-4-yl)methyl)amino)-8-(2-isopropoxy-4-methylpyrimidin-5-yl)imidazo[1,2-c]pyrimidine-2-carbonitrile] | ≥ 6.60 | > 7.00 |
| N#Cc1cn2c(NCc3c(F)ccc4c3CCO4)ncc(-c3cncc(F)c3)c2n1 [Example 97, 5-(((5-fluoro-2,3-dihydrobenzofuran-4-yl)methyl)amino)-8-(5-fluoropyridin-3-yl)imidazo[1,2-c]pyrimidine-2-carbonitrile] | ≥ 6.60 | > 7.00 |
| CN(C)C(=O)c1ccc(-c2cnc(NCc3c(F)ccc4c3CCO4)n3cc(C#N)nc23)c(F)c1F [Example 42, 4-(2-cyano-5-(((5-fluoro-2,3-dihydrobenzofuran-4-yl)methyl)amino)imidazo[1,2-c]pyrimidin-8-yl)-2,3-difluoro-N,N-dimethylbenzamide] | ≥ 6.60 | > 7.00 |
| Cc1ncccc1-c1cnc(NCc2c(F)ccc3occc23)n2cc(C(N)=O)nc12 [Example 12, 5-(((5-fluorobenzofuran-4-yl)methyl)amino)-8-(2-methylpyridin-3-yl)imidazo[1,2-c]pyrimidine-2-carboxamide] | < 6.30 | > 7.00 |
| CN(C)C(=O)c1c(F)cc(-c2cnc(NCc3c(F)ccc4c3CCO4)n3cc(C#N)nc23)cc1F [Example 45, 4-(2-cyano-5-(((5-fluoro-2,3-dihydrobenzofuran-4-yl)methyl)amino)imidazo[1,2-c]pyrimidin-8-yl)-2,6-difluoro-N,N-dimethylbenzamide] | ≥ 6.60 | > 7.00 |
| CNC(=O)c1cn2c(NCc3c(F)ccc4c3CCO4)ncc(-c3cc(C)nn3C)c2n1 [Example 20, 8-(1,3-dimethyl-1H-pyrazol-5-yl)-5-(((5-fluoro-2,3-dihydrobenzofuran-4-yl)methyl)amino)-N-methylimidazo[1,2-c]pyrimidine-2-carboxamide] | ≥ 6.60 | > 7.00 |

— patent EP4043466B1, “PRC2 INHIBITORS” (Mirati Therapeutics, Inc., priority 2018, dated 2019)
